# In publication PMC6164588 (International Journal of Environmental Research and Public …, 2018):
# Read-outs that look alike come from different tables or passages of the source.
# What was measured:
# [1] = system: Salmonella typhimurium TA97 strain; assay: Ames assay (Salmonella typhimurium/reverse mutation assay), TA97 strain
# Excerpt: (§1) TA97, TA98, TA100, and TA102 were used as standard test strains. The strains were provided by Jiangsu Provincial Center for Disease Control and Prevention and Guizhou Medical University. TA97 and TA98 strains primarily detect the genotoxic substances of frameshift mutants, while TA100 and TA102 strains detect DNA as a mutagenic substance for base pair substitution. TA102 strain has a different specificity from the other Salmonella strains routinely used in mutagenicity screening. It detects a variety of oxidative mutagens and seems to be more sensitive to some aldehydes and some DNA damaging compounds, which are negative with other Salmonella strains.
# (§2) According to the standard Ames bacterial mutagenicity assay and Safety and Technical Standards for Cosmetics, the experiments were performed by the plate incorporation method with or without liver microsomal metabolic activation (S9) mixture. For the pure materials, the highest dose group was generally 5 mg/plate or 5 μL/plate. After the bacterial inhibition experiment, five dose groups (0.05, 0.5, 5, 50, 500 μg/plate) were determined for testing the chemicals. Three parallel plates were prepared for each dose. The chemicals (test chemicals or positive control drugs), the S9 system (with or without), and the S. typhimurium strains (TA97, TA98, TA100, TA102) were added to the nutrient mediums. The negative control (blank and solvent) groups and the positive control groups were also done with three parallel plates.
# (§3) The chemicals and concentrations were as follows: In the absence of the S9 system: Dexon 50 μg/plate for the TA97, TA98, and TA102 strains, and NaN3 1.5 μg/plate for the TA100 strain.
# (§4) Five concentrations for each chemical were tested for mutagenicity in the standard plate pre-incubation assay. The reported numbers of reverse mutation colonies per plate are mean values from triplicates obtained in one experiment. The experiment was repeated at two times.
# (§5) All the plates for the experiments were incubated under the same conditions: 37 ± 0.5 °C, 48 h, dark.
# (§6) The test series was set as 100%, 50%, 10%, 5%, and 0.5%. […] Then, 100 μL of the mixtures, which were at different doses, was added to each plate.
# (§7) The mutagenicity ratio (MR) is calculated as MR = x/x0(1) where x is the number of reverse mutation colonies on compound-treated plates and x0 is the number of reverse mutation colonies in the negative control group.
# (§8) When the mutagenicity ratio (MR) is ≥2 and the dose–response relationship and the background are normal, the mutagenesis is judged as positive.
# [2] = system: Salmonella typhimurium TA98 strain; assay: Ames assay (Salmonella typhimurium/reverse mutation assay), TA98 strain
# Excerpt: as §1, §2, §3, §4, §5, §6, §7, §8
# [3] = system: Salmonella typhimurium TA102 strain; assay: Ames assay (Salmonella typhimurium/reverse mutation assay), TA102 strain
# Excerpt: as §1, §2, §3, §4, §5, §6, §7, §8
# [4] = system: Salmonella typhimurium TA100 strain; conditions: for Mutation effect, TA100 strain: absence of S9
# Excerpt: as §1, §2, §3, §4, §5, §6, §7, §8
# [5] = system: S. typhimurium TA97 strain; assay: Bacterial inhibition experiment, TA97 strain
# Experimental: (§9) Bacterial inhibition experiment is necessary according to the standard Ames bacterial mutagenicity assay. Safety and Technical Standards for Cosmetics require that the maximum chemical dose should be 5 mg/plate. […] The maximum concentration of both were 50 mg/mL, then diluted to 25 mg/mL, 10 mg/mL, 5 mg/mL, and 0.5 mg/mL. Plates were poured with LB medium, and 0.1 mL of the above solution and 0.1 mL of bacterial solution per dish were added.
# (§10) The criteria for determining the highest dose of the test substance are its toxicity to the bacteria and its solubility. A decrease in spontaneous reversion variables, a decrease in background bacteria, or a decrease in the number of bacteria in the culture being treated are signs of toxicity.
# (§11) For this, bacterial growth inhibition tests were designed and carried out.
# [6] = system: S. typhimurium TA98 strain; assay: Bacterial inhibition experiment, TA98 strain
# Experimental: as §9, §10, §11
# [7] = system: S. typhimurium TA100 strain; assay: Bacterial inhibition experiment, TA100 strain
# Experimental: as §9, §10, §11
# [8] = system: S. typhimurium TA102 strain; assay: Bacterial inhibition experiment, TA102 strain
# Experimental: as §9, §10, §11
# TA98 strain = conditions: concentrations of 300 μg/plate and 500 μg/plate; cited from earlier work
# TA100 strain = conditions: concentrations of 300 μg/plate and 500 μg/plate; cited from earlier work
# [9] = dose 50 μg/plate, −S9, positive control
smiles,measurement,setting,value
"CN(C)c1ccc(N=NS(=O)(=O)[O-])cc1.[Na+] [Dexon, reference compound]",Reverse mutation colonies TA97 −S9,[1]; dose 50 μg/plate,1987 ± 203 colonies per plate
same,Mutagenicity ratio (MR) flag TA97 −S9,"[1]; dose 50 μg/plate, positive control",* (MR ≥ 2 compared to control)
same,Reverse mutation colonies TA98 −S9,"[2]; dose 50 μg/plate, −S9",1065 ± 137 colonies per plate
same,Mutagenicity ratio (MR) flag TA98 −S9,[2]; [9],* (MR ≥ 2 compared to control)
same,Reverse mutation colonies TA102 −S9,"[3]; dose 50 μg/plate, −S9",586 ± 83 colonies per plate
same,Mutagenicity ratio (MR) flag TA102 −S9,[3]; [9],* (MR ≥ 2 compared to control)
"O=C1c2cccc(O)c2C(=O)c2c(O)cccc21 [Dantron, reference compound]",Reverse mutation colonies TA102 +S9,"[3]; dose 50 μg/plate, +S9",625 ± 71 colonies per plate
same,Mutagenicity ratio (MR) flag TA102 +S9,"[3]; dose 50 μg/plate, +S9, positive control",* (MR ≥ 2 compared to control)
"O=C(c1ccccc1)c1ccc(O)cc1O [BP-1, benzophenone-1]","Mutagenic activities, TA97 strain","[1]; +S9 system, doses from 0.05 μg/plate to 500 μg/plate",no mutagenic activities were detected
same,"Mutagenicity, TA97 strain","[1]; absence of S9, doses of 0.05 and 0.5 μg/plate",significant mutagenicity
same,Reverse mutation colonies TA97 +S9,[1]; dose 0.05 μg/plate,151 ± 8 colonies per plate
same,Mutagenicity ratio (MR) flag TA97 −S9,[1]; dose 0.05 μg/plate,* (MR ≥ 2 compared to control)
same,Reverse mutation colonies TA97 −S9,[1]; dose 0.05 μg/plate,925 ± 13 colonies per plate
same,Reverse mutation colonies TA97 +S9,[1]; dose 0.5 μg/plate,143 ± 10 colonies per plate
same,Mutagenicity ratio (MR) flag TA97 −S9,[1]; dose 0.5 μg/plate,* (MR ≥ 2 compared to control)
same,Reverse mutation colonies TA97 −S9,[1]; dose 0.5 μg/plate,697 ± 56 colonies per plate
same,Reverse mutation colonies TA97 +S9,[1]; dose 5 μg/plate,146 ± 10 colonies per plate
same,Reverse mutation colonies TA97 −S9,[1]; dose 5 μg/plate,185 ± 10 colonies per plate
same,Reverse mutation colonies TA97 +S9,[1]; dose 50 μg/plate,149 ± 11 colonies per plate
same,Reverse mutation colonies TA97 −S9,[1]; dose 50 μg/plate,83 ± 6 colonies per plate
same,Reverse mutation colonies TA97 +S9,[1]; dose 500 μg/plate,88 ± 20 colonies per plate
same,Reverse mutation colonies TA97 −S9,[1]; dose 500 μg/plate,6 ± 1 colonies per plate
same,Reverse mutation colonies TA98 +S9,[2]; dose 0.05 μg/plate,51 ± 7 colonies per plate
same,Reverse mutation colonies TA98 −S9,"[2]; dose 0.05 μg/plate, −S9",43 ± 13 colonies per plate
same,Reverse mutation colonies TA98 +S9,[2]; dose 0.5 μg/plate,48 ± 2 colonies per plate
same,Reverse mutation colonies TA98 −S9,"[2]; dose 0.5 μg/plate, −S9",46 ± 8 colonies per plate
same,Reverse mutation colonies TA98 +S9,[2]; dose 5 μg/plate,52 ± 7 colonies per plate
same,Reverse mutation colonies TA98 −S9,"[2]; dose 5 μg/plate, −S9",33 ± 3 colonies per plate
same,Reverse mutation colonies TA98 +S9,[2]; dose 50 μg/plate,36 ± 1 colonies per plate
same,Reverse mutation colonies TA98 −S9,"[2]; dose 50 μg/plate, −S9",22 ± 9 colonies per plate
same,Reverse mutation colonies TA98 +S9,[2]; dose 500 μg/plate,23 ± 2 colonies per plate
same,Reverse mutation colonies TA98 −S9,"[2]; dose 500 μg/plate, −S9",0 ± 1 colonies per plate
same,"Mutagenicity result, TA98 strain",[2]; systems both with and without S9,not mutagenic
same,"Mutation effect, TA100 strain",[4]; dose 0.5 μg/plate,significant mutation effect
same,"Mutation effect, TA100 strain","[4]; doses of 5, 50, and 500 μg/plate",no obvious mutations
same,Reverse mutation colonies TA100 +S9,[4]; dose 0.05 μg/plate,174 ± 13 colonies per plate
same,Reverse mutation colonies TA100 −S9,"[4]; dose 0.05 μg/plate, −S9",239 ± 17 colonies per plate
same,Reverse mutation colonies TA100 +S9,[4]; dose 0.5 μg/plate,193 ± 12 colonies per plate
same,Mutagenicity ratio (MR) flag TA100 −S9,"[4]; dose 0.5 μg/plate, −S9",* (MR ≥ 2 compared to control)
same,Reverse mutation colonies TA100 −S9,"[4]; dose 0.5 μg/plate, −S9",458 ± 29 colonies per plate
same,Reverse mutation colonies TA100 +S9,[4]; dose 5 μg/plate,191 ± 8 colonies per plate
same,Reverse mutation colonies TA100 −S9,"[4]; dose 5 μg/plate, −S9",153 ± 2 colonies per plate
same,Reverse mutation colonies TA100 +S9,[4]; dose 50 μg/plate,196 ± 4 colonies per plate
same,Reverse mutation colonies TA100 −S9,"[4]; dose 50 μg/plate, −S9",188 ± 15 colonies per plate
same,Reverse mutation colonies TA100 +S9,[4]; dose 500 μg/plate,122 ± 4 colonies per plate
same,Reverse mutation colonies TA100 −S9,"[4]; dose 500 μg/plate, −S9",181 ± 10 colonies per plate
same,Reverse mutation colonies TA102 +S9,"[3]; dose 0.05 μg/plate, +S9",350 ± 11 colonies per plate
same,Reverse mutation colonies TA102 −S9,"[3]; dose 0.05 μg/plate, −S9",311 ± 12 colonies per plate
same,Reverse mutation colonies TA102 +S9,"[3]; dose 0.5 μg/plate, +S9",369 ± 10 colonies per plate
same,Reverse mutation colonies TA102 −S9,"[3]; dose 0.5 μg/plate, −S9",369 ± 18 colonies per plate
same,Reverse mutation colonies TA102 +S9,"[3]; dose 5 μg/plate, +S9",443 ± 8 colonies per plate
same,Reverse mutation colonies TA102 −S9,"[3]; dose 5 μg/plate, −S9",355 ± 20 colonies per plate
same,Reverse mutation colonies TA102 +S9,"[3]; dose 50 μg/plate, +S9",429 ± 8 colonies per plate
same,Reverse mutation colonies TA102 −S9,"[3]; dose 50 μg/plate, −S9",407 ± 16 colonies per plate
same,Reverse mutation colonies TA102 +S9,"[3]; dose 500 μg/plate, +S9",390 ± 10 colonies per plate
same,Reverse mutation colonies TA102 −S9,"[3]; dose 500 μg/plate, −S9",7 ± 4 colonies per plate
same,"Mutagenicity, TA102 strain",[3]; presence or absence of S9,not mutagenic
same,Bacterial inhibition t-Test Result TA97,[5]; dose 50 μg/plate,−
same,Bacterial inhibition t-Test Result TA97,[5]; dose 500 μg/plate,+ (t-test (p < 0.05))
same,Bacterial inhibition t-Test Result TA97,[5]; dose 1000 μg/plate,+ (t-test (p < 0.05))
same,Bacterial inhibition t-Test Result TA97,[5]; dose 2500 μg/plate,++ (t-test (p < 0.01))
same,Bacterial inhibition t-Test Result TA97,[5]; dose 5000 μg/plate,++ (t-test (p < 0.01))
same,Bacterial inhibition t-Test Result TA98,[6]; dose 50 μg/plate,−
same,Bacterial inhibition t-Test Result TA98,[6]; dose 500 μg/plate,+ (t-test (p < 0.05))
same,Bacterial inhibition t-Test Result TA98,[6]; dose 1000 μg/plate,+ (t-test (p < 0.05))
same,Bacterial inhibition t-Test Result TA98,[6]; dose 2500 μg/plate,++ (t-test (p < 0.01))
same,Bacterial inhibition t-Test Result TA98,[6]; dose 5000 μg/plate,++ (t-test (p < 0.01))
same,Bacterial inhibition t-Test Result TA100,[7]; dose 50 μg/plate,−
same,Bacterial inhibition t-Test Result TA100,[7]; dose 1000 μg/plate,+ (t-test (p < 0.05))
same,Bacterial inhibition t-Test Result TA100,[7]; dose 2500 μg/plate,++ (t-test (p < 0.01))
same,Bacterial inhibition t-Test Result TA100,[7]; dose 5000 μg/plate,++ (t-test (p < 0.01))
same,Bacterial inhibition t-Test Result TA102,[8]; dose 50 μg/plate,−
same,Bacterial inhibition t-Test Result TA102,[8]; dose 500 μg/plate,+ (t-test (p < 0.05))
same,Bacterial inhibition t-Test Result TA102,[8]; dose 1000 μg/plate,+ (t-test (p < 0.05))
same,Bacterial inhibition t-Test Result TA102,[8]; dose 2500 μg/plate,++ (t-test (p < 0.01))
same,Bacterial inhibition t-Test Result TA102,[8]; dose 5000 μg/plate,++ (t-test (p < 0.01))
same,"Mutagenicity, TA98 strain",TA98 strain,None of the compounds produced clear positive mutagenicity results
same,"Mutagenicity, TA100 strain",TA100 strain,None of the compounds produced clear positive mutagenicity results
